Data from patent US7241861B2, “High density lipoprotein-reactive peptides” (Japan Immunoresearch Laboratories Co., Ltd., priority 2001, dated 2007).

Legend:
RAW264 cells = experiment: Cholesterol efflux test in RAW264 cells loaded with acetylated LDL; assay type: cell-based, mouse; conditions: foam with acetylated LDL; peptide 20, 2.0 or 0.2 μg/mL, 24 hours; supernatant cholesterol (FIG. 4)
Method: The aforementioned peptides were examined with regard to cholesterol efflux effect from RAW264 cells (a model of atherosclerosis).
Specifically, RAW264 cells (mouse monocytic leukemia cell strain) were added to DMEM medium that had been supplemented with 10% FBS, to thereby prepare a specimen having a concentration of 4×10^5 cells/mL. An aliquot of the specimen (1 mL) was added to each well of a 12-well plate, followed by culture for two days in a CO2 incubator (37° C.). The medium in each well was removed, and the cells in the well were washed once with 1 mL of DMEM containing 0.2% BSA and 20 mM glutamine (hereinafter referred to as “DMEM”). Subsequently, a solution of acetylated LDL in DMEM (40 μg/mL, 1 mL) was added to each well, followed by culture for 24 hours in a CO2 incubator (37° C.), whereby acetylated LDL entered into the cells. The cells were washed twice with PBS supplemented with 0.2% BSA. Thereafter, a solution of dibutyl cAMP in DMEM (0.3 mM, 1 mL) was added to each well, followed by incubation for 2 hours in a CO2 incubator (37° C.).
The test peptide (20 μL) was added to each well so as to attain a final concentration of 20, 2.0, or 0.2 μg/mL, followed by culture for 24 hours in a CO2 incubator (37° C.).
After 24 hours, the supernatant of each well was collected in a microtube, and the microtube was centrifuged for five minutes at 10,000 rpm. The cholesterol level of the supernatant was measured by means of the autoanalyzer described above.
Each test peptide was dissolved in DMSO (5 mg/mL), and the thus-formed solution was diluted with DMEM so as to attain a concentration of 1 mg/mL. Subsequently, the resultant solution was diluted 10-fold or 100-fold with DMEM, to thereby prepare a test sample. Moreover, in order to prepare a control sample, only DMSO was diluted with DMEM so as to attain a final concentration of 0.4, 0.04, or 0.004%; and in order to prepare a positive control sample, delipid HDL was diluted with DMEM so as to attain a concentration of 2.5, 5.0, or 10 μg/mL.

HDL cholesterol = experiment: Reactivity with HDL: HDL sample reacted with peptide-bound affinity gel, analysis of unbound fraction; assay type: binding, Human; conditions: for reduction of total cholesterol level of HDL: Example 5, total cholesterol level of applied HDL sample 12.7 mg/dl
Method: The peptide obtained in (1) above (B100FL, 0.1 mg) was added to affinity gel (25 μL) to which an anti-apo B-100 monoclonal antibody (JI-H) had been immobilized, whereby a B100FL-bound affinity gel was prepared. A control gel was prepared by treating gel with PBS (not containing B100FL) in a manner similar to the above.
Human plasma (1 mL) was added to affinity gel (2 mL) to which an anti-apo A-I monoclonal antibody had been immobilized, to thereby cause HDL to be specifically bound to the gel. The bound HDL was eluted with 3M sodium thiocyanate, and the buffer of the thus-obtained eluent was changed to PBS through use of a column for desalting, to thereby prepare an HDL sample.
The aforementioned anti-apo A-I monoclonal antibody immobilized affinity gel and anti-apo B-100 monoclonal antibody (JI-H) immobilized affinity gel were prepared in accordance with a conventional method (Japanese Patent Publication (kokoku) No. 7-104351).
The HDL sample (containing 20 μg of apo A-I) was reacted with the B100FL-bound affinity gel for 30 minutes at room temperature. Subsequently, the reaction mixture was left to stand for 15 minutes to thereby cause the gel to precipitate, to thereby remove the gel from the reaction mixture.
Total cholesterol level: Total cholesterol level was determined with a reagent for measuring cholesterol level (L-TCII, Kyowa Medex Co., Ltd.) by means of an autoanalyzer (TBA20R; Toshiba).
Lipoprotein analysis: Lipoprotein was analyzed through HPLC of a lipoprotein analysis system (Lipopropax XL, eluent: TSK eluent LP-1, 1 mL/min., sample volume: 100 μL; Tosoh) by monitoring colors produced by cholesterol.
Protein concentration: Each protein concentration was determined by measuring absorbance (OD280); or through the Lowry method in which each sample (which had been delipidized with ethanol-ether) was subjected to color reaction.
Protein analysis: Protein was analyzed by SDS-gel electrophoresis. Specifically, each sample was subjected to delipidizing treatment and solubilized with 1% SDS, followed by treatment with a buffer (2% SDS/10% glycerol/0.005% BPB/20% 2-mercaptoethanol), to thereby prepare a sample for electrophoresis. The resultant sample was electrophoresed in a 4-20% gradient gel in accordance with a conventional method.
In a manner similar to that described in Example 1 (3), reactivity of PS509 (synthesized in Example 2) with HDL was examined (as a test peptide, B-100FL or PS509 was employed, and the total cholesterol level of the applied HDL sample was 12.7 mg/dl).

[1] = test system: anti-apo B-100 monoclonal antibody (JI-H); experiment: Reactivity with anti-apo B-100 monoclonal antibody (JI-H) by ELISA on peptide-coated plate; assay type: binding; conditions: OD450 vs immobilized peptide concentration (FIG. 1)
Text: (2) Reactivity with anti-apo b-100 Monoclonal Antibody (JI-H: J. Clin. Ligand Assay, 19 (3), 177 (1999))
The reactivity was confirmed through ELISA in accordance with a conventional method by using a plate coated with the peptide obtained above (B100FL) (see Japanese Patent Application Laid-Open (kokai) No. 4-104798).

[2] = test system: quail arteriosclerosis model; experiment: Effect test by use of an arteriosclerosis model (high-cholesterol-fed quails, aortic arch histology); assay type: in vivo
Text: Cholesterol (Wako Pure Chemical Industries, Ltd.) and corn oil (Corn Germ Oil 100; Ajinomoto Co., Inc.) were incorporated into a commercially available feed (product of Natural Pet Foods, “Chicks and nestlings (Quail)”) so as to attain final concentrations of 2% and 15%, respectively, to thereby prepare a high-cholesterol feed.
Healthy quails were bred while being allowed to freely intake the high-cholesterol feed for eight weeks. From five weeks after the beginning of breeding, a solution of the test peptide (B-100FL) in saline (1.0 mg/mL) was administered to the brachial (wing) vein (200 μL; 200 μg/body) twice a week at the interval of two through three days. In a manner similar to that described above, only saline was administered to the quails of a control group.
After the quails had been bred for eight weeks, the head of each quail was cut for exsanguination, and an aorta sample was obtained. The aorta sample was immediately fixed in a fixing solution (10% formalin) for three days. Subsequently, a tissue specimen (a frozen section having a thickness of 4 μm) of the aortic arch (where arteriosclerosis foci are most likely to occur) was prepared. The tissue specimen was subjected to hematoxylin-and-eosin staining (routine staining), and to oil-red staining (fat staining), followed by examination under a microscope.

[3] = 200 μg/body i.v. twice a week from week 5 to 8, aortic arch section

Q: For “LLDQLGTTIS FERIND (LLDQLGTTISFERIND) [PS507, Apo B-100 position 2,297–2,312]”, which “cholesterol efflux effect from RAW264 cells” value (“cholesterol efflux effect” below) (RAW264 cells) is on record?
A: not to exhibit the effect

Q: With DFEVAEKINA FRAKVHEL IE R [P21] as the substance, how does the “cholesterol efflux effect” value (RAW264 cells) read?
A: not to exhibit the effect

Q: Which “cholesterol efflux effect” value (RAW264 cells) does the source give for “LLDQLGTTIS FERINDVLEH VKHF (LLDQLGTTISFERINDVLEHVKHF) [PS506, Apo B-100 position 2,297–2,320]” here?
A: not to exhibit the effect

Q: For “FERINDVLEH VKHFVINLIG DFEVAEKINA (FERINDVLEHVKHFVINLIGDFEVAEKINA) [PS509, Apo B-100 position 2,307–2,336]”, which “cholesterol efflux effect” value (RAW264 cells) is on record?
A: strong cholesterol efflux effect

Q: What about the “reduction of total cholesterol level of HDL” value (HDL cholesterol) of the same substance?
A: about 48 percentage points

Q: Which “cholesterol efflux effect” value (RAW264 cells) does the source give for EKINA FRAKVHEL IE R [PS508] here?
A: not to exhibit the effect

Q: How did the “cholesterol efflux effect” value (RAW264 cells) turn out when “LLDQLGTTIS FERINDVLEH VKHFVINLIG (LLDQLGTTISFERINDVLEHVKHFVINLIG) [PS505, Apo B-100 position 2,297–2,326]” was run?
A: strong cholesterol efflux effect

Q: Which “cholesterol efflux effect” value (RAW264 cells) does the source give for “LLDQLGTTISFERINDVLEHVKHFVINLIGDFEVAEKINAFRAKVHEL IE R (LLDQLGTTISFERINDVLEHVKHFVINLIGDFEVAEKINAFRAKVHELIER) [P51, 51 amino acid residues, the 2,297th to the 2,347th amino acid residues of apo B-100]” here?
A: strong cholesterol efflux effect

Q: And the “reactivity with JI-H” value [1]?
A: specific reactivity

Q: What about the “lipid accumulation in the internal tunica” value ([2]; 200 μg/body i.v. (wing vein) twice a week from week 5 to 8 of high-cholesterol feed, aortic arch section) of the same substance?
A: a small amount of lipid accumulation was observed

Q: And the “morphological disorder of the vessel internal tunica” value [2, 3]?
A: no morphological disorder

Q: And the “thickening of the internal tunica and lipid infiltration into the middle tunica” value [2, 3]?
A: absent

Q: And the “reduction of total cholesterol level of HDL” value (HDL cholesterol)?
A: about 72 percentage points

Q: What about the “peak attributed to cholesterol (HDL-C) in lipoprotein analysis” value (HDL cholesterol; FIG. 2, HDL sample treated with B100FL-bound gel) of the same substance?
A: does not include a peak

Q: What about the “total cholesterol level relative to HDL sample treated with the control gel” value (HDL cholesterol; HDL sample treated with B100FL-bound gel vs control gel) of the same substance?
A: about 1/15

Q: What about the HDL-C (HDL cholesterol; HDL-cholesterol by lipoprotein analysis (HPLC) of fraction that did not bind to the B100FL gel) of the same substance?
A: 243.2 Area

Q: What about the “interaction with cholesterol and cholesterol ester of HDL” value (HDL cholesterol; conclusion from cholesterol, lipoprotein and SDS-gel analysis) of the same substance?
A: has an effect of effluxing cholesterol and cholesterol ester from apoprotein particles of HDL

Q: And the “Cholesterol (total cholesterol level)” value (HDL cholesterol; fraction that did not bind to the B100FL gel, HDL sample containing 20 μg apo A-I, 30 min room temperature)?
A: 0.25 mg/dL
